Data taken from patent US7160983B2, “Echinocandin derivatives, their method of preparation and their application as anti-fungal agents” (Aventis Pharma S.A., priority 1997, dated 2007).

Tested on: Glucane Synthesis of Candida Albicans
Experiment: Inhibition of the glucane synthesis of Candida albicans (membrane preparation, 14C-UDP glucose incorporation)
Format: biochemical
Details: Candida albicans membranes, 25° C., 1 hour
Method: Pharmacological Study A—Inhibition of the Glucane Synthesis of Candida Albicans.
The membranes of Candida albicans are purified according to the process described by Tang and al Antimicrob. Agents Chemother 35, 99–103, 1991. 22.5 μg of membrane proteins are incubated in a mixture of 2 Mm of 14C-UDP glucose (specific activity=0.34 mCi./mmol, 50 μg of α-amylase, 1 Mm of dithiotreitol (DTT), 1 Mm EDTA, 100 Mm NaF, 7 μM of GTP-γ-S, 1M of sucrose and 5 oMm OF Ttris-HCL (pH 7.8) in a volume of 100 μl. The medium is incubated at 25° C. for 1 hour and the reaction terminated by addition of TCA to a final concentration of 5%. The reaction medium is transferred onto a pre-humidified glass fibre filter. The filter is washed, dried and its radioactivity is counted.
Mulundocandin is used as positive control.
The control of the medium is carried out with the same quantity of DMSO 1%.

| Substance | Inhibition of the glucane synthesis of Candida albicans (activity in words) |
| --- | --- |
| (±) Trifluoroacetate of 1-[4-[(aminoiminomethyl)hydrazono]-N2-(12-methyl-1-oxotetradecyl)-L-ornithine]4-[4-(4-hydroxyphenyl)-L-threonine]-5-L serine echinocandin B [Example 11] | good activity |
| Trifluoroacetate of 1-[4-[(2-aminoethyl) amino]-N2-(12-methyl-1-oxotetradecyl)-L-ornithine]4-[4-(4-hydroxyphenyl)-L-threonine]-5-L serine echinocandin B (isomer A and isomer B) [Example 9] | good activity |
| Trifluoroacetate of 1-[4-[(2-aminoethyl) amino]N2-[[4′-(octyloxy)[1.1′-biphenyl]-4-[carbonyl]-L-ornithine]4-[4-(4-(4-hydroxyphenyl)-L-threonine]-5-L serine echinocandin B (isomer A) [Example 14] | good activity |
